{"source": "paper doi:10.1101/2025.02.26.640323", "about": "“Aggregation-Dependent Epitope Sequence and Modification Fingerprints of Anti-Aβ Antibodies” (bioRxiv, 2025)", "key": {"[1]": {"system": "Aβ1–42 monomer, oligomer and fibril preparations; AβpE3–40", "assay": "Bistris-SDS gradient PAGE/Western blot", "assay_type": "binding", "settings": "4–12% Bistris SDS-PAGE", "experimental": "No SPR-487B) (StressMarq biosciences, Victoria, BC, Canada). The samples for electrophoresis were prepared (starting from stock solutions) with final concentrations of 0.1 μg/μL) in LDS sample buffer (247.5 mM Tris-HCl, pH 8.5, 2% (w/v) lithium dodecyl sulfate (LDS), 10% (v/v) glycerol, 0.5 mM EDTA, 0.22 mM Brilliant Blue G250, 0.175 mM Phenol Red) and denatured by heating at 70°C for 10 min. […] The prechilled transfer buffer contained 25 mM Tris, 192 mM glycine, 20% (v/v) methanol and 0.0375 % Tween-20. After blotting, the membrane was washed for 10 min at room temperature in Tris-buffered saline (TBS) followed by blocking for 30 min with 5% powdered milk in TBS containing 0.1% Tween-20 (TBS-T). The blots were then incubated with primary antibodies in 5% milk in TBS-T over night at 4°C and washed 3 × for 10 min with TBS-T at room temperature. […] After 1 h incubation with the secondary antibodies, the blots were washed 3 × for 10 min with TBS-T and incubated for 5 min with ECL-Prime Western Blotting Detection Reagent (Cytiva Amersham, Little Chalfont, England). Images were recorded on a Vilber-Loumart Fusion SL blot imager. […] That way, the 4G8 reprobing signals were essentially added on top of the initial signals and background artifacts."}, "AβpE3-x": {"system": "AβpE3-x", "assay": "PTM-Aβ microarray, pE3", "assay_type": "binding, human", "settings": "Donanemabbs 0,0012μg/mL, 2–48, Aβ-pE3, IC16 […], vs Aβ3-x with non-cyclized Glu", "description": "(§1) Specific PTMs might be associated with different stages of AD progression and severity, offering potential biomarkers for diagnosis and prognosis. Targeting PTMs represents a potential therapeutic strategy to prevent Aβ aggregation and neurotoxicity, thereby slowing disease progression. […] Therefore, a selected group of PTM-carrying Aβ peptides (PTM-Aβ) were incorporated into the Aβ chip to explore the potential binding preference of selected Aβ-Abs, under optimized concentrations (Figure 3). The antibodies were tested with both PTM-Aβ and the corresponding unmodified variants to provide a head-to-head comparison. This screening was performed in the presence of Aβ phosphorylated at positions Ser(8) or Ser(26), N-terminal pE at position 3, racemization/isomerization of Asp at position 1, and unmodified N-terminal variants. The dataset is divided into sections (Figure 3 a–f) for enhanced visualization, where each antibody was screened simultaneously against all peptides to locate their epitope preferences. […] A set of antibodies without reported PTM preference was applied here as controls (refer to Table 1), namely 11H3, 101–1-1, IC16, 82E1 and 3D6.\n(§2) Figure 3. […] Blue and red shades indicate the binding strength over the related arrayed […] modified peptide shown on top and cognate anti-Aβ antibody to the left. […]"}, "[2]": {"system": "PTM-carrying Aβ peptides (PTM-Aβ)", "assay": "PTM-Aβ microarray, general", "assay_type": "binding, human", "settings": "general statement", "description": "as §1, §2"}, "[3]": {"system": "synthetic Aβ peptide variants", "assay": "Capillary isoelectric focusing (CIEF) immunoassay", "assay_type": "binding", "experimental": "Automated capillary isoelectric focusing immunoassays were performed with a Peggy-Sue system (ProteinSimple,San Jose, California, USA), essentially as previously described and [53].\nIn brief, synthetic Aβ peptide variants were separated by isoelectric focusing in microcapillaries followed by photochemical immobilization to the inner capillary walls and probing with the primary antibodies for 120 min. After 2 washes, the horseradish peroxidase conjugated secondary antibodies were loaded and incubated for 60 min. After two washing steps, a luminol/peroxide mix was loaded, and chemiluminescent signals were recorded. The data was analyzed with the Compass for SW software. The following secondary antibodies were used: Anti-human IgG Secondary HRP antibody (Protein Simple, catalog number 043–491), Goat-Anti-Mouse-HRP Secondary Antibody ProteinSimple, catalog number 040–655) and Peroxidase-conjugated Affini Pure Donkey Anti-Human IgG (H+L) (1:100 dilution) (Jackson ImmunoResearch Laboratories Inc., West Grove, PA, code number 709–035-149)."}, "Aβ(−10–18)": {"system": "Aβ(−10–18)", "assay": "Deep mutational scans of 18-meric Aβ peptides on microarray", "assay_type": "binding, human"}, "synthetic Aβ peptides": {"system": "synthetic Aβ peptides", "assay": "Peptide Bicine-Tris SDS-PAGE/Western blot", "assay_type": "binding", "settings": "PVDF, 50 ng per peptide, 0.5 μg/mL antibody"}}, "note": "Entries after “also recorded” stand apart in the source; their conditions may differ."}
{"substance": "Donanemabbs: humanized monoclonal, biosimilar of Donanemab, Proteogenix (#PX-TA1549)", "values": [{"measurement": "detection of AβpE3–40, Bistris Western blot", "setting": "[1]", "result": "detected multiple AβpE3–40 bands in the low Mwrange"}, {"measurement": "detection of HFIP-treated monomeric, oligomeric and fibrillar Aβ1–42", "setting": "[1]", "result": "very faint signals"}, {"measurement": "selectivity for / binding to AβpE3-x", "setting": "AβpE3-x", "result": "high selectivity for Aβ peptides starting with an N-terminal pE"}, {"measurement": "preference for PTMs", "setting": "[2]", "result": "exhibited the previously reported preferences for PTMs"}, {"measurement": "signals with other N-terminal Aβ variants (CIEF and Bicine-Tris Western blot)", "setting": "[3]", "result": "no or very small signals"}, {"measurement": "preference of Aβ variant (CIEF and Bicine-Tris Western blot)", "setting": "[3]; AβpE3–40 vs Aβ3–40", "result": "clear preference for the Aβ variant starting with the cyclized N-terminal pE; also recorded: high preference for pyroglutamate bearing pEAβ3–40"}, {"measurement": "Aβ variants detected on CIEF-immunoassay", "setting": "[3]; Peggy Sue, chemiluminescence", "result": "detected AβpE3–40 and Aβ3–40"}, {"measurement": "core motif / main contacts / epitope", "setting": "Aβ(−10–18); 18-mer deep mutational scan, core position if >50% of exchanges reduce binding by >50%", "result": "EFRHDSGY"}, {"measurement": "residue conservation at Asp(1) and Ala(2)", "setting": "Aβ(−10–18); Aβ1–18 deep mutational scan", "result": "Asp(1) and Ala(2) were not highly conserved"}, {"measurement": "Aβ variants detected on Bicine-Tris SDS-PAGE/Western blot", "setting": "synthetic Aβ peptides", "result": "detected AβpE3–40 and Aβ3–40"}]}
